The source of these data is patent US20090270361A1, “Substituted pyrazole derivatives and use thereof” (Takeda Pharmaceutical Company Limited, priority 2008, published 2009).

For this assay, the system named is Human prostate cancer cells LNCaP-FGC. Put plainly: Prostate specific antigen (PSA) production inhibition test in prostate cancer cells. In kind it is cell-based. To be noted: for inhibition at 1 µM: Homo sapiens, 72 h, read-out: PSA production inhibitory rate (%).

Consider `Cc1nn(-c2ccc(C#N)c(Cl)c2)c(C)c1Cc1ccc(C(=O)NC(C)(C)C)cc1` [Example 351, N-tert-butyl-4-{[1-(3-chloro-4-cyanophenyl)-3,5-dimethyl-1H-pyrazol-4-yl]methyl}benzamide], for which the inhibition at 1 µM came to 109%. Still for that read-out and setting: as for `Cc1nn(-c2ccc(C#N)c(Cl)c2)c(C)c1Cc1ccc(C(=O)NCC(C)(C)O)cc1` [Example 356, 4-{[1-(3-chloro-4-cyanophenyl)-3,5-dimethyl-1H-pyrazol-4-yl]methyl}-N-(2-hydroxy-2-methylpropyl)benzamide], the figure is 98%; as for `Cc1nn(-c2ccc(C#N)c(Cl)c2)c(C)c1Oc1ccc(C(=O)N2CCOCC2)cc1` [Example 357, 2-chloro-4-{3,5-dimethyl-4-[4-(morpholin-4-ylcarbonyl)phenoxy]-1H-pyrazol-1-yl}benzonitrile], 100%. `Cc1nn(-c2ccc(C#N)c(Cl)c2)c(C)c1Oc1ccc(NC(=O)C(C)(C)C)cn1` [Example 455, N-(6-{[1-(3-chloro-4-cyanophenyl)-3,5-dimethyl-1H-pyrazol-4-yl]oxy}pyridin-3-yl)-2,2-dimethylpropanamide]: the inhibition at 1 µM stood at 108%.

For the molecule `CC(O)(CS(=O)(=O)c1ccc(F)cc1)C(=O)Nc1ccc(C#N)c(C(F)(F)F)c1` (centres unmarked) [bicartamide, reference compound], the “PSA production inhibitory rate (%)” value (1 µM) stood at 75%.
